≈ marks a conversion by molar mass, not a printed value. Read-outs that look alike come from different tables or passages of the source.
Columns and labels:
water solubility = format: physicochemical
Method: A 15% w/v solution was prepared, seeded and stirred at room temperature.

Swiss Albino mice [1] = assay: Acute Intravenous Toxicity Studies in Mice; format: in vivo, mouse (Swiss Albino, Charles River)
Method: (§1) Toxicity evaluations in accordance with three different techniques were carried out on aqueous solutions of the compounds of Examples I, II, IV, V, VI, VIII, IX, X, XI and XII. The techniques utilized are described below.
1. Acute Intravenous Toxicity Studies in Mice
Except as noted below, Swiss Albino mice (Charles River) were dosed in the lateral tail vein with solutions of the above-noted iodinated compounds having an iodine concentration of 28.2% with a pH of 7.0-7.2. The solutions were injected at the rate of approximately 1 ml./min. In the case of the compound of Examples I, II and VI, supersaturated solutions having an iodine concentration of 10%, 28% and 28%, respectively, were employed. […] The LD50 values were calculated by the method of Litchfield and Wilcoxon (J. of Pharmac. and Exptl. Therap. 96:99-113, 1949).

Swiss Albino mice [2] = assay: Intracerebral Toxicity in Mice; format: in vivo, mouse (Swiss Albino, Charles River)
Method: as §1
2. Intracerebral Toxicity in Mice
Swiss Albino mice (Charles River) were used. Fixed volumes of aqueous solutions of the iodinated compounds were injected intracerebrally via a 27-gauge needle (1/4 inch in length) according to the method of Haley et al. (Br. J. of Pharmac. 12:12-15, 1957). Again in the case of the compounds of Examples I, II and VI, supersaturated solutions were employed. In the case of the compound of Examples VIII and IX, solutions having an iodine concentration of 35% and 42%, respectively, were employed and in the case of the compound of Example X, a solution having an iodine concentration of 40% was employed. The animals were observed immediately following injections and daily throughout a seven day observation period. The LD50 values were calculated by the method of Litchfield and Wilcoxon (J. of Pharmac. and Exptl. Therap. 96:99-113, 1949).

[3] = system: Sprague-Dawley (Carworth) rats; assay: Intracisternal Toxicity in Rats; format: in vivo, rat (Sprague-Dawley; details: two day observation
Method: as §1
3. Intracisternal Toxicity in Rats
Sprague-Dawley (Carworth) rats were used. The method used was a variation of the procedure outlined by Melartin et al. (Invest. Rad. 5:13-21, 1970). In the case of the compound of Examples VIII and IX, solutions having an iodine concentration of 35% and 40%, respectively, were employed and in the case of the compound of Example X, a solution having an iodine concentration of 40% was employed. After dosing, the animals were housed individually and observed for immediate reactions and periodically for a two day observation period. The LD50 values were calculated according to the method of Litchfield and Wilcoxon (J. of Pharmac. and Exptl. Therap. 96:99-115, 1949).

dogs [4] = assay: intravenous pyelographic studies in dogs; format: in vivo, dog; details: 250 mg. I/kg.
Method: (§2) The compound of Example I was tested as a bronchographic agent in a dog with good results. The compound of Example II was employed in intravenous pyelographic studies carried out in dogs. At a dosage of 250 mg. […] At a dosage of 350 mg. […] At a dosage of 350 mg. […] At a dosage of 190 mg. […] The compound of Examples VIII and IX was employed in intrathecal myelographic studies carried out in dogs. At dosages of 282 to 2400 mg. […] The compound of Examples VIII and IX was employed in intracisternal toxicity studies carried out in dogs using the cisterna magna as the route of administration. At a dosage of 1410 mg. […] The compound of Example X was employed in intravenous pyelographic studies carried out in rats. At a dosage of 500 mg. […] At a dosage of 70 mg. […] In a separate study, the compound of Examples XI and XII was administered to dogs by intraspinal administration at a dosage of 70 mg. I/kg.

dog [5] = assay: urinary tract visualization after injection into a dog; format: in vivo
Method: as §2

dog [6] = assay: tested as a bronchographic agent in a dog; format: in vivo
Method: as §2

dogs [7] = assay: intrathecal myelographic studies in dogs; format: in vivo, dog
Method: as §2

dogs [8] = assay: radiographs after intraspinal administration to dogs; format: in vivo, dog; details: 70 mg. I/kg.
Method: as §2

dogs [9] = assay: intracisternal toxicity studies in dogs (cisterna magna route); format: in vivo, dog; details: 1410 mg. I/kg.
Method: as §2

rats = assay: intravenous pyelographic studies in rats; format: in vivo, rat; details: 500 mg. I/kg.
Method: as §2

[10] = water, read-out: water solubility
[11] = supersaturated solution, iodine concentration 28%
[12] = supersaturated solution, seven day observation
[13] = iodine concentration 28.2%, pH 7.0-7.2, approx. 1 ml./min., seven-day observation
[14] = fixed volumes of aqueous solutions, seven day observation
[15] = water, initially, read-out: solubility, initial

CNC(=O)c1c(I)c(NC(=O)C(=O)[C@@H](O)[C@H](O)[C@@H](O)CO)c(I)c(C(=O)N(C)C)c1I [III, 2,4,6-Triiodo-5-(2-keto-L-gulonamido)-N,N,N'-trimethylisophthalamide]
solubility (water solubility; [10]): 37.5 mg/mL (≈ 48.4 mM)

CNC(=O)c1c(I)c(NC(=O)[C@H](O)[C@@H](O)[C@H](O)[C@H](O)CO)c(I)c(C(=O)N(C)C)c1I [Example II, 5-D-Gluconamido-2,4,6-triiodo-N,N,N'-trimethylisophthalamide]
solubility (water solubility; [10]): 284 mg/mL (≈ 365 mM)
LD50 Value I.V. (Mice) (Swiss Albino mice [1]; [11]): 8,085 mg. I/kg. body wt.
LD50 Value Intracerebral (Mice) (Swiss Albino mice [2]; [12]): 2,350 mg. I/kg. body wt.
LD50 Value Intracisternal (Rats) [3]: 100 mg. I/kg. body wt.
ureters and urinary bladder visualization (dogs [4]; five minutes after injection): the ureters and urinary bladder were visible
kidney visualization (dogs [4]; one minute after injection): kidney shadows were observed

CNC(=O)c1c(I)c(NC(=O)[C@H](O)[C@@H](O)[C@H](O)[C@H](O)CO)c(I)c(N(C)C(C)=O)c1I [Example IV, 3-D-Gluconamido-2,4,6-triiodo-N-methyl-5-(N-methylacetamido)-benzamide]
solubility (water solubility; [10]): ≥ 1000 mg/mL
LD50 Value I.V. (Mice) (Swiss Albino mice [1]; [13]): 6,400 mg. I/kg. body wt.
LD50 Value Intracerebral (Mice) (Swiss Albino mice [2]; [14]): 1,175 mg. I/kg. body wt.
LD50 Value Intracisternal (Rats) [3]: 75 mg. I/kg. body wt.
urinary bladder visualization (dog [5]; 350 mg. I/kd. (so in the source), 40 minutes after injection): gave a shadow of the urinary bladder

CNC(=O)c1c(I)c(CO)c(I)c(NC(=O)[C@H](O)[C@@H](O)[C@H](O)[C@H](O)CO)c1I [Example VII, 3-D-gluconamido-5-hydroxymethyl-2,4,6-triiodo-N-methylbenzamide]
solubility (water solubility; [10]): 18.6 mg/mL (≈ 25.3 mM)

CNC(=O)c1c(I)c(NC(=O)[C@H](O)[C@@H](O)[C@H](O)[C@H](O)CO)c(I)c(C(=O)NC)c1I [Example I, 5-D-Gluconamido-2,4,6-triiodo-N,N'-dimethylisophthalamide]
solubility (water solubility; [10]): 12 mg/mL (≈ 15.7 mM)
LD50 Value I.V. (Mice) (Swiss Albino mice [1]; supersaturated solution, iodine concentration 10%): > 10,000 mg. I/kg. body wt.
LD50 Value Intracerebral (Mice) (Swiss Albino mice [2]; [12]): > 750 mg. I/kg. body wt.
LD50 Value Intracisternal (Rats) [3]: > 150 mg. I/kg. body wt.
bronchographic agent test result (dog [6]): good results

CNC(=O)c1c(I)c(NC(=O)[C@H](O)[C@@H](O)[C@H](O)[C@H](O)CO)c(I)c(NC(=O)[C@H](O)[C@@H](O)[C@H](O)[C@H](O)CO)c1I [Examples XI and XII, 3,5-bis-D-gluconamido-2,4,6-triiodo-N-methylbenzamide]
turbidity of solution (water solubility; 15% w/v solution, seeded and stirred at room temperature): turbidity developed within two hours
solubility thermodynamic (water solubility; water, 15% w/v solution seeded, stirred at room temperature, filtered, filtrate aliquot evaporated to constant weight at 85° C.): 120 mg/mL (≈ 133 mM)
solubility at 24 h (water solubility; water, after 24 hr., read-out: aqueous solubility after 24 hr.): < 150 mg/mL
solubility (water solubility; [15]): 1000 mg/mL (≈ 1110 mM)
LD50 Value I.V. (Mice) (Swiss Albino mice [1]; [13]): 20,500 mg. I/kg. body wt.
LD50 Value Intracerebral (Mice) (Swiss Albino mice [2]; [14]): 1,330 mg. I/kg. body wt.
LD50 Value Intracisternal (Rats) [3]: > 560 mg. I/kg. body wt.
radiographs, filling (dogs [7]; intrathecal injection, 70 mg. I/kg.): fair filling with some degree of scalloping
radiographs, definition of lumbar and sacral spinal spaces (dogs [8]): the lumbar and sacral spinal spaces were well defined

CNC(=O)c1c(I)c(NC(=O)[C@H](O)[C@@H](O)[C@H](O)[C@H](O)CO)c(I)c(N(CCO)C(C)=O)c1I [Examples VIII and IX, 3-gluconamido-5-[N-(2-hydroxyethyl)acetamido]-2,4,6-triiodo-N-methylbenzamide]
solubility (water solubility; water, printed as slightly less than, read-out: aqueous solubility): < 1000 mg/mL
LD50 Value I.V. (Mice) (Swiss Albino mice [1]; Iodine Conc. 40%): 14,500 mg. I/kg. body wt.
LD50 Value I.V. (Mice) (Swiss Albino mice [1]; [13]): > 13,000 mg. I/kg. body wt.
LD50 Value Intracerebral (Mice) (Swiss Albino mice [2]; Iodine Conc. 35%): > 2,679 mg. I/kg. body wt.
LD50 Value Intracerebral (Mice) (Swiss Albino mice [2]; Iodine Conc. 42%): 2,200 mg. I/kg. body wt.
LD50 Value Intracisternal (Rats) ([3]; Iodine Conc. 35%): > 505 mg. I/kg. body wt.
LD50 Value Intracisternal (Rats) ([3]; Iodine Conc. 40%): 590 mg. I/kg. body wt.
filling of subarachnoid space (dogs [7]; intrathecal, 282 to 2400 mg. I/kg., extent depending on volume injected and size of animal): good filling of the subarachnoid space from the cul-de-sac to the thoracic, cervical and cisterna magna
subarachnoid space filling (dogs [9]): partial filling of the cerebral subarachnoid space and good cervical and thoracic subarachnoid space filling

CNC(=O)c1c(I)c(C(=O)N(C)C)c(I)c(N(C)C(=O)[C@@H](O)[C@H](O)[C@H](O)[C@@H](O)C=O)c1I [Example V, 2,4,6-triiodo-N,N,N'-trimethyl-5-(N-methyl-D-galacturonamido)-isophthalamide]
solubility (water solubility; [10]): ≥ 1000 mg/mL
LD50 Value I.V. (Mice) (Swiss Albino mice [1]; [13]): 1,700 mg. I/kg. body wt.
LD50 Value Intracerebral (Mice) (Swiss Albino mice [2]; [14]): 1,700 mg. I/kg. body wt.
LD50 Value Intracisternal (Rats) [3]: 28 mg. I/kg. body wt.
kidney and ureter visualization (dog [5]; 350 mg. I/kg., 5 minutes after injection): gave a kidney shadow with partial visualization of the ureters

CNC(=O)c1c(I)c(NC(=O)C(=O)[C@@H](O)[C@H](O)[C@@H](O)CO)c(I)c(N(CCO)C(C)=O)c1I [Example X, 3-[N-(2-hydroxyethyl)acetamido]-2,4,6-triiodo-5-(2-keto-L-gulonamido)-N-methylbenzamide]
solubility on standing (water solubility; after standing several days, analytical sample): a precipitate formed after standing several days
solubility, initial (water solubility; initially): 100 % (w/v)
solubility at 504 h (water solubility; water, after 21 days): 640 mg/mL (≈ 795 mM)
solubility (water solubility; [15]): 1000 mg/mL (≈ 1240 mM)
LD50 Value I.V. (Mice) (Swiss Albino mice [1]; [13]): ~ 10,500 mg. I/kg. body wt.
LD50 Value Intracerebral (Mice) (Swiss Albino mice [2]; Iodine Conc. 40%): 2,500 mg. I/kg. body wt.
LD50 Value Intracisternal (Rats) ([3]; Iodine Conc. 40%): 405 mg. I/kg. body wt.
urinary bladder contrast (rats; 10 and 15 minutes after dosing): showed good contrast
collecting pelvis of the right kidney filling (rats; 10 minutes): showed good filling
kidney and ureter visualization (rats; five minutes after injection): faint kidney and portions of ureters were observed

CNC(=O)c1c(I)c(NC(C)=O)c(I)c(NC(=O)[C@H](O)[C@@H](O)[C@H](O)[C@H](O)CO)c1I [Example VI, 3-acetamido-5-D-gluconamido-2,4,6-triiodo-N-methylbenzamide]
solubility (water solubility; [10]): 86 mg/mL (≈ 113 mM)
LD50 Value I.V. (Mice) (Swiss Albino mice [1]; [11]): 11,000 mg. I/kg. body wt.
LD50 Value Intracerebral (Mice) (Swiss Albino mice [2]; [12]): ~ 2,000 mg. I/kg. body wt.
LD50 Value Intracisternal (Rats) [3]: 180 mg. I/kg. body wt.
kidney and ureter visualization (dog [5]; 190 mg. I/kg., one minute after injection): gave a kidney shadow with partial visualization of the ureters
